# Test results reported in ChEMBL document CHEMBL4819062, “Novel iodinated quinazolinones bearing sulfonamide as new scaffold targeting radiation induced oxidative stress” (Bioorg Med Chem Lett, 2021).
# Active and inactive are the calls of the source. The rule behind the calls is not given here.
# Tests used:
# [1] = biological target: T1, Nuclear factor erythroid 2-related factor 2 (Mus musculus) (UniProt Q60795); assay: Activation of Nrf2 in mouse Hepa1c1c7 cells assessed as increase in NQO1 activity at 3.125 uM; type: cell-based; conditions: filed as activator
# T1 sequence (whole entry): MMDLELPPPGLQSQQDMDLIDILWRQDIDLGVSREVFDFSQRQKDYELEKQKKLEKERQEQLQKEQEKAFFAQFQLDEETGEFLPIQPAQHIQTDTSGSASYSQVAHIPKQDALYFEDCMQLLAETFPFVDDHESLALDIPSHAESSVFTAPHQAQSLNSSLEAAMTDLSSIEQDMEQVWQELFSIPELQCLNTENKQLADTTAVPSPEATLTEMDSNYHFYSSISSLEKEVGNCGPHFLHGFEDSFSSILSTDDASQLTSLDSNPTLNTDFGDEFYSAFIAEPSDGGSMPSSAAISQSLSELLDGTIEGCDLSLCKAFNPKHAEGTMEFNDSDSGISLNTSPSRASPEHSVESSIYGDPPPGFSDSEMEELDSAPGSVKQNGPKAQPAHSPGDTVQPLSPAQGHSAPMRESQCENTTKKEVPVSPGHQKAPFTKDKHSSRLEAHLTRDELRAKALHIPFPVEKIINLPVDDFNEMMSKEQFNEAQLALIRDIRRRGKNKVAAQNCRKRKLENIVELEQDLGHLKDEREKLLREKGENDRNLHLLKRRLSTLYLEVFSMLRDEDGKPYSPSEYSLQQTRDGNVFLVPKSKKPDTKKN
# [2] = biological target: T1, Nuclear factor erythroid 2-related factor 2 (Mus musculus); assay: Activation of Nrf2 in mouse Hepa1c1c7 cells assessed as increase in NQO1 activity at 50 uM; type: cell-based; conditions: filed as activator
# Mus musculus [3] = assay: Radioprotective activity in albino mouse assessed as RBC level at 50 mg/kg, ip administered for 5 days and on day 5 irradiated with gamma radiation and measured after 3 days (reference value: 5.89 +/- 0.27 10^6/UL); type: functional; conditions: time 8 day
# [4] = Effect on RBC level in albino mouse at 50 mg/kg, ip administered for 5 days (reference value: 7.17 +/- 0.15 10^6/UL); type: functional; conditions: time 5 day
# Mus musculus [5] = assay: Radioprotective activity in albino mouse assessed as NQO1 level at 50 mg/kg, ip administered for 5 days and on day 5 irradiated with gamma radiation and measured after 3 days (reference value: 192 %); type: functional; conditions: time 8 day
# Mus musculus [6] = assay: Radioprotective activity in albino mouse assessed as PLT level at 50 mg/kg, ip administered for 5 days and on day 5 irradiated with gamma radiation and measured after 3 days (reference value: 500.3 +/- 49.73 10^3/UL); type: functional; conditions: time 8 day
# Mus musculus [7] = assay: Radioprotective activity in albino mouse assessed as HCT level at 50 mg/kg, ip administered for 5 days and on day 5 irradiated with gamma radiation and measured after 3 days (reference value: 23.05 +/- 0.98 %); type: functional; conditions: time 8 day
# [8] = Effect on WBC level in albino mouse at 50 mg/kg, ip administered for 5 days (reference value: 2.54 +/- 0.16 10^3/UL); type: functional; conditions: time 5 day
# [9] = biological target: T1, Nuclear factor erythroid 2-related factor 2 (Mus musculus); assay: Activation of Nrf2 in mouse Hepa1c1c7 cells assessed as increase in NQO1 activity at 1.6 uM; type: cell-based; conditions: filed as activator
# [10] = Effect on PLT level in albino mouse at 50 mg/kg, ip administered for 5 days (reference value: 1135 +/- 91.52 10^3/UL); type: functional; conditions: time 5 day
# [11] = biological target: T1, Nuclear factor erythroid 2-related factor 2 (Mus musculus); assay: Activation of Nrf2 in mouse Hepa1c1c7 cells assessed as increase in NQO1 activity at 0.4 uM; type: cell-based; conditions: filed as activator
# [12] = Effect on HGB level in albino mouse at 50 mg/kg, ip administered for 5 days (reference value: 10.75 +/- 0.63 g/dL); type: functional; conditions: time 5 day
# [13] = biological target: T1, Nuclear factor erythroid 2-related factor 2 (Mus musculus); assay: Activation of Nrf2 in mouse Hepa1c1c7 cells assessed as increase in NQO1 activity at 25 uM; type: cell-based; conditions: filed as activator
# [14] = Antioxidant activity assessed as DPPH radical scavenging activity; type: functional
# Mus musculus [15] = assay: Radioprotective activity in albino mouse assessed as ROS level at 50 mg/kg, ip administered for 5 days and on day 5 irradiated with gamma radiation and measured after 3 days (reference value: 39 %); type: functional; conditions: time 8 day
# [16] = biological target: T1, Nuclear factor erythroid 2-related factor 2 (Mus musculus); assay: Activation of Nrf2 in mouse Hepa1c1c7 cells assessed as increase in NQO1 activity at 12.5 uM; type: cell-based; conditions: filed as activator
# Mus musculus [17] = assay: Radioprotective activity in albino mouse assessed as effect on body weight at 50 mg/kg, ip administered for 5 days and on day 5 irradiated with gamma radiation and measured after 3 days; type: functional, organism-based; conditions: time 8.0 day
# Mus musculus [18] = assay: Radioprotective activity in albino mouse assessed as HGB level at 50 mg/kg, ip administered for 5 days and on day 5 irradiated with gamma radiation and measured after 3 days (reference value: 7.98 +/- 0.24 g/dL); type: functional; conditions: time 8 day
# [19] = Toxicity in albino mouse assessed as lethality; conditions: in vivo
# [20] = biological target: T1, Nuclear factor erythroid 2-related factor 2 (Mus musculus); assay: Activation of Nrf2 in mouse Hepa1c1c7 cells assessed as concentration required to double induction to increase in NQO1 activity; type: cell-based; conditions: filed as activator
# [21] = Effect on HCT level in albino mouse at 50 mg/kg, ip administered for 5 days (reference value: 33.45 +/- 1.82 %); type: functional; conditions: time 5 day
# Mus musculus [22] = assay: Radioprotective activity in albino mouse assessed as WBC level at 50 mg/kg, ip administered for 5 days and on day 5 irradiated with gamma radiation and measured after 3 days (reference value: 0.40 +/- 0.03 10^3/UL); type: functional; conditions: time 8 day
# Mus musculus [23] = assay: Radioprotective activity in albino mouse assessed as organism survival rate at 50 mg/kg, ip administered for 5 days and on day 5 irradiated with gamma radiation and measured after 3 days; type: functional, organism-based; conditions: time 8.0 day
# Mus musculus [24] = assay: Radioprotective activity in albino mouse assessed as Nrf2 level at 50 mg/kg, ip administered for 5 days and on day 5 irradiated with gamma radiation and measured after 3 days (reference value: 23 %); type: functional; conditions: time 8 day
# [25] = biological target: T1, Nuclear factor erythroid 2-related factor 2 (Mus musculus); assay: Activation of Nrf2 in mouse Hepa1c1c7 cells assessed as increase in NQO1 activity at 0.8 uM; type: cell-based; conditions: filed as activator
# Mus musculus [26] = assay: Radioprotective activity in albino mouse assessed as MDA level at 50 mg/kg, ip administered for 5 days and on day 5 irradiated with gamma radiation and measured after 3 days (reference value: 86 %); type: functional; conditions: time 8 day
# [27] = biological target: T1, Nuclear factor erythroid 2-related factor 2 (Mus musculus); assay: Activation of Nrf2 in mouse Hepa1c1c7 cells assessed as increase in NQO1 activity at 6.25 uM; type: cell-based; conditions: filed as activator
# [28] = Toxicity in albino mouse assessed as effect on liver weight at 50 mg/kg, ip administered for 5 days; type: organism-based; conditions: in vivo, 120 h, time 5 day
# [29] = biological target: T1, Nuclear factor erythroid 2-related factor 2 (Mus musculus); assay: Activation of Nrf2 in mouse Hepa1c1c7 cells assessed as increase in NQO1 activity at 1.9 uM; type: cell-based; conditions: filed as activator
# [30] = biological target: T1, Nuclear factor erythroid 2-related factor 2 (Mus musculus); assay: Activation of Nrf2 in mouse Hepa1c1c7 cells assessed as increase in NQO1 activity at 0.2 uM; type: cell-based; conditions: filed as activator
# [31] = biological target: T1, Nuclear factor erythroid 2-related factor 2 (Mus musculus); assay: Activation of Nrf2 in mouse Hepa1c1c7 cells assessed as increase in NQO1 activity at 0.9 uM; type: cell-based; conditions: filed as activator
# [32] = biological target: T1, Nuclear factor erythroid 2-related factor 2 (Mus musculus); assay: Activation of Nrf2 in mouse Hepa1c1c7 cells assessed as increase in NQO1 activity at 0.5 uM; type: cell-based; conditions: filed as activator
# [33] = biological target: T1, Nuclear factor erythroid 2-related factor 2 (Mus musculus); assay: Activation of Nrf2 in mouse Hepa1c1c7 cells assessed as increase in NQO1 activity at 15 uM; type: cell-based; conditions: filed as activator
# [34] = biological target: T1, Nuclear factor erythroid 2-related factor 2 (Mus musculus); assay: Activation of Nrf2 in mouse Hepa1c1c7 cells assessed as increase in NQO1 activity at 30 uM; type: cell-based; conditions: filed as activator
# [35] = biological target: T1, Nuclear factor erythroid 2-related factor 2 (Mus musculus); assay: Activation of Nrf2 in mouse Hepa1c1c7 cells assessed as increase in NQO1 activity at 7.5 uM; type: cell-based; conditions: filed as activator
# [36] = biological target: T1, Nuclear factor erythroid 2-related factor 2 (Mus musculus); assay: Activation of Nrf2 in mouse Hepa1c1c7 cells assessed as increase in NQO1 activity at 3.75 uM; type: cell-based; conditions: filed as activator
# [37] = biological target: T1, Nuclear factor erythroid 2-related factor 2 (Mus musculus); assay: Activation of Nrf2 in mouse Hepa1c1c7 cells assessed as increase in NQO1 activity at 20 uM; type: cell-based; conditions: filed as activator
# [38] = biological target: T1, Nuclear factor erythroid 2-related factor 2 (Mus musculus); assay: Activation of Nrf2 in mouse Hepa1c1c7 cells assessed as increase in NQO1 activity at 5 uM; type: cell-based; conditions: filed as activator
# [39] = biological target: T1, Nuclear factor erythroid 2-related factor 2 (Mus musculus); assay: Activation of Nrf2 in mouse Hepa1c1c7 cells assessed as increase in NQO1 activity at 40 uM; type: cell-based; conditions: filed as activator
# [40] = biological target: T1, Nuclear factor erythroid 2-related factor 2 (Mus musculus); assay: Activation of Nrf2 in mouse Hepa1c1c7 cells assessed as increase in NQO1 activity at 10 uM; type: cell-based; conditions: filed as activator
# [41] = biological target: T1, Nuclear factor erythroid 2-related factor 2 (Mus musculus); assay: Activation of Nrf2 in mouse Hepa1c1c7 cells assessed as increase in NQO1 activity at 2.5 uM; type: cell-based; conditions: filed as activator
# [42] = biological target: T1, Nuclear factor erythroid 2-related factor 2 (Mus musculus); assay: Activation of Nrf2 in mouse Hepa1c1c7 cells assessed as increase in NQO1 activity at 0.313 uM; type: cell-based; conditions: filed as activator
# [43] = biological target: T1, Nuclear factor erythroid 2-related factor 2 (Mus musculus); assay: Activation of Nrf2 in mouse Hepa1c1c7 cells assessed as increase in NQO1 activity at 0.625 uM; type: cell-based; conditions: filed as activator
# [44] = biological target: T1, Nuclear factor erythroid 2-related factor 2 (Mus musculus); assay: Activation of Nrf2 in mouse Hepa1c1c7 cells assessed as increase in NQO1 activity at 1.25 uM; type: cell-based; conditions: filed as activator
structure (smiles),measurement,setting,value
NS(=O)(=O)c1ccc(-n2c(SCC(=O)Nc3cccnc3Cl)nc3c(I)cc(I)cc3c2=O)cc1,Activity,[1],1.09
same,Activity,[2],2.65
same,Activity,Mus musculus [3],6.37 10^6 /uL
same,Activity,[4],6.13 10^6 /uL
same,Activity,Mus musculus [5],37%
same,Activity,Mus musculus [6],956.8 10^3 /uL
same,Activity,Mus musculus [7],25.83%
same,Activity,[8],2.08 10^3 /uL
same,Activity,[9],1
same,Activity,[10],1030 10^3 /uL
same,Activity,[11],0.99
same,Activity,[12],8.54 g/dL
same,Activity,[13],2.13
same,IC50,[14],28 µM
same,Activity,Mus musculus [15],23%
same,Activity,[16],1.38
same,Activity,Mus musculus [17],Active
same,Activity,Mus musculus [18],9.9 g/dL
same,LD50,[19],500 mg/kg
same,CD,[20],25 µM
same,Activity,[21],26.86%
same,Activity,Mus musculus [22],1.34 10^3 /uL
same,Activity,Mus musculus [23],Active
same,Activity,Mus musculus [24],15%
same,Activity,[25],0.98
same,Activity,Mus musculus [26],32%
same,Activity,[27],1.17
same,Activity,[28],Non-Toxic
NS(=O)(=O)c1ccc(-n2c(SCC(=O)Nc3ccc(Br)cc3Br)nc3c(I)cc(I)cc3c2=O)cc1,Activity,[29],1.02
same,Activity,[30],1.01
same,Activity,[31],1
same,IC50,[14],37.8 µM
same,Activity,[32],1
same,Activity,[33],1.13
same,Activity,[34],1.17
same,Activity,[35],1.08
same,Activity,[36],1.09
NS(=O)(=O)c1ccc(-n2c(SCC(=O)Nc3ccc(Cl)cc3)nc3c(I)cc(I)cc3c2=O)cc1,Activity,[37],1.26
same,Activity,[38],1.19
same,IC50,[14],56.5 µM
same,Activity,[39],1.26
same,Activity,[40],1.26
same,Activity,[41],1.04
same,Activity,[42],1.06
same,Activity,[43],1.04
same,Activity,[44],1.03
NS(=O)(=O)c1ccc(-n2c(SCC(=O)Nc3ccc(Br)cc3)nc3c(I)cc(I)cc3c2=O)cc1,Activity,[37],1.42
same,Activity,[38],1.02
same,IC50,[14],49.3 µM
same,Activity,[39],1.93
same,Activity,[40],1.15
same,Activity,[20],Dose-Dependent Effect
same,CD,[20],40 µM
same,Activity,[41],0.94
same,Activity,[42],1.02
same,Activity,[43],1.01
same,Activity,[44],0.99
